Measurements reported in publication PMC12022909, “A Multicomponent Reaction-Based Platform Opens New Avenues in Aryl Hydrocarbon Receptor Modulation” (ACS Central Science, 2025).
pEC50: −log10 of the molar value. “Also recorded” adds a separate entry of the source.

Columns and labels:
Jurkat cells = assay: Cell viability (Annexin V-APC, flow cytometry) in Jurkat cells; assay type: cell-based; conditions: 24 h
Method: (§1) A phosphatidylserine exposure was used to determine cell viability. Cells were washed with PBS, pelleted, and then incubated with annexin binding buffer containing Annexin V-APC (Life Technologies) for 15 min in the dark. Then, samples were analyzed by flow cytometry using FACSCanto II and FACSDiva (BD Biosciences, Franklin Lakes, NJ, USA). Data represents the percentage of non - apoptotic cells (Ann -APC-).
(§2) The cytotoxicity of a selection of the synthesized compounds was assessed after 24 hours of treatment in two human cell lines, Jurkat and HEK293T, coming from either tumoral T-cell lymphocytes or non-tumoral embryonic kidney fibroblasts, respectively. […]
(§3) the pro-apoptotic activity was not significant below 10 µM for most compounds in both cell lines, except for 5i, 5k and 5l in both cell lines, as well as 9a in Jurkat and 5e HEK293T cells (Figure S35A-B).
(§4) Moreover, the cytotoxicity of compounds 4d, 5b, 5h, 8, 10, and 12d at a higher concentration (100 µM) was assessed in both cell lines, Jurkat and HEK293T. The cytotoxicity of compounds 5b, 5h, and 12d could not be properly tested as the compounds were not soluble […]
(§5) effects observed for compound 4d in Jurkat cells and compound 8 in HEK293T cells (Figure S35C).
(§6) Figure S35. A) Jurkat and B) HEK293T cells were treated with 1 and 10 µM doses of the corresponding compound for 24 hours. Indicated doses of fluorizoline were used as a positive control of cell death. C) Jurkat and HEK293T cells were treated with 100 µM of the corresponding compound for 24 hours. Viability was measured by flow cytometry, and it is expressed as the mean ± SEM (n = 3) of the percentage of non -apoptotic cells (Ann-APC-). * p < 0.05, ** p < 0.01 *** p < […]
(§7) (1 picture or pasted object on this page, not shown here)

HEK293T cells = assay: Cell viability (Annexin V-APC, flow cytometry) in HEK293T cells; assay type: cell-based; conditions: 24 h
Method: as §1, §2, §3, §4, §5, §6, §7

[1] = Solubility in the growing media during cytotoxicity testing; assay type: physicochemical; conditions: concentration of 100 µM
Method: as §1, §2, §3, §4, §5, §6, §7

[2] = molecular target: T1, aryl hydrocarbon receptor (AhR) (Homo sapiens, UniProt P35869); assay: AhR/XRE-dependent luciferase reporter gene assay in XRE-HepG2 cells; assay type: cell-based; conditions: XRE-HepG2 cells, 8 h; unit as in the supplements; read-out: AhR/XRE-dependent luciferase activity EC50
T1 construct: AhR-dependent reporter gene activity was determined in human HepG2 cells stably transfected with an XRE; endogenous in cells; host or cells: XRE-HepG2 (human HepG2 hepatoma cells stably carrying an XRE-luciferase plasmid)
T1 sequence (P35869 11-848): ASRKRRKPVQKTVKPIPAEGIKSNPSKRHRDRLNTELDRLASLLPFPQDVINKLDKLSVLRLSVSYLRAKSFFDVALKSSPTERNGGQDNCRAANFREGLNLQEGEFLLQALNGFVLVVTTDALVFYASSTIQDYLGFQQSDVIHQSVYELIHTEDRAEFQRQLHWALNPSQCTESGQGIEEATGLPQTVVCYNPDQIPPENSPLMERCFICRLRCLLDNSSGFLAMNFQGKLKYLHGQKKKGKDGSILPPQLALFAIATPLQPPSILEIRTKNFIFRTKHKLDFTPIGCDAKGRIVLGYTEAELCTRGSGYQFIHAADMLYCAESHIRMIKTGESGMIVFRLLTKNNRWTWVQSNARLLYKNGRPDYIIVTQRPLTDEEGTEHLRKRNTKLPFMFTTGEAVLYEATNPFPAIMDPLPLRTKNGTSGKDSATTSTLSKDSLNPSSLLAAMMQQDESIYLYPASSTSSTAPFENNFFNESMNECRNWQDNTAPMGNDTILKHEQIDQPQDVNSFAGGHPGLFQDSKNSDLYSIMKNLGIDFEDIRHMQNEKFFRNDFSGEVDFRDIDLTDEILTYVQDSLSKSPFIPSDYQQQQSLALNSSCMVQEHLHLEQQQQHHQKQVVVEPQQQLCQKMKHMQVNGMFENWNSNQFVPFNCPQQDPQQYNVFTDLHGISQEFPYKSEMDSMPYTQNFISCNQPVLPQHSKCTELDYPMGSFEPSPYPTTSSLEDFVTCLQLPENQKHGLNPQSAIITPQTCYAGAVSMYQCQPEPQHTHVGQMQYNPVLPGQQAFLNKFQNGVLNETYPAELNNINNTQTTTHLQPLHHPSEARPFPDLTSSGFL
Method: (f) AhR/XRE-dependent reporter gene activity results (EC50/μM).
Data are shown as mean ± SEM.
The human XRE -HepG2 reporter cell -line was a kind gift of K. Gradin and L. Poellinger (Karolinska Institute, Stockholm,
antibiotic/antimycotic solution, and 0.8 mg/ml G418. All cells were cultivated at 37 °C in a humidified atmosphere containing 5% CO 2.
AhR-dependent reporter gene activity was determined in human HepG2 cells stably transfected with an XRE -harboring luciferase plasmid (XRE-HepG2 cells). […] Luciferase activity was normalized to protein content.

HaCaT cells = assay: UVA phototoxicity, caspase 3 activity in HaCaT cells; assay type: cell-based, human; conditions: for UVA radiation-induced caspase activity (phototoxicity): HaCaT, 1 h, UVA 5 J/cm2
Method: Irradiation with UVA and caspase 3 activity measurement […]
culture media was exchanged with PBS and the cells were sham or UVA (5 J/cm2) irradiated using the BS-02 irradiation chamber (Opsytec Dr. Gröbel, Ettlingen Germany). Media was added to the cells and after 4 h incubation, caspase 3 activity was measured as described previously.[33] Protein quantification was done with the Bio-Rad DC protein assay kit (Bio-Rad Laboratories, Hercules, CA) according to the manufacturer protocol.
We compared the phototoxic potential of five of our test compounds (8, 10, 5b, 5h, 4b) as well as the FDA-approved AhR activator […]
induced caspase activity at a concentration of 100 nM (Figure S36A). At a 10-fold higher concentration (1 µM) two of the test compounds […]
Figure S36. […] For statistical analysis a two-way ANOVA (Tukey post-hoc) was performed and data are shown as mean ± SEM. (*, p ≤ 0.05). […]

AhR = molecular target: T2, AhR (Homo sapiens, UniProt P35869); assay: Western blot of AhR in MCF7 cells; assay type: cell-based; conditions: 10 µM, 5 h
T2 construct: Degradation of endogenous AhR was further confirmed via Western blotting and global proteomics measurements in cells treated with 12b; host or cells: MCF7
T2 sequence (P35869 11-848): T1 sequence (P35869 11-848)
Method: Figure S30. Agonists induce degradation of AhR.
12b, 12c, and 12d at a concentration of 10 µM for 5h. The numbers on the Blot indicate the signal intensities of the bands relative to the Tubulin bands, normalized to DMSO treatment as quantified with Empiria Studio. […]
Cell culture and treatment […]
MCF7 cells were purchased from ATCC and grown in DMEM with 10% FCS and 1% penicillin/ streptomycin. […]
All cells were cultivated at 37 °C in a humidified atmosphere containing 5% CO 2.
Tapinarof (MedChemExpress, Monmouth Junction, NJ), benzo[a]pyrene (Sigma-Aldrich, Taufkirchen, Germany), TCDD (Amchro, Hattersheim am Main, Germany) and all compounds synthesized in this study were dissolved in dimethyl sulfoxide (DMSO; Roth). […]
Quantitative real-time PCR […]
• CYP1A1: […] (forward (5'>3')); […] (reverse (5'>3')).
• CYP1B1: […] (forward (5'>3')); […] (reverse (5'>3')).
• CCL26: […] (forward (5'>3')); […] (reverse (5'>3')).
• IL-19: […] (forward (5'>3')); […] (reverse (5'>3')).
• CXCL1: […] (forward (5'>3')); […] (reverse (5'>3')).
• β-actin: […] (forward (5'>3')); […] (reverse (5'>3')). […]
The assay was carried out as described earlier. Luciferase activity was normalized to protein content.
SDS-PAGE/Western blot analysis
Cells were lysed in RIPA buffer on ice and subsequently centrifuged for 15 min at 4 °C at maximum speed. Protein samples were separated by 10% and 12% SDS -polyacrylamide gel electrophoresis and blotted onto PVDF (GE Healthcare, Freiburg, Germany) or Nitrocellulose (BioRad #17 04158) membranes. Blots were blocked with 5% skim milk or bovine serum albumin in TBS -Tween-20 (0.1%) for or Intercept® (TBS) Blocking Buffer (LI -COR Biosciences) 1 h at room temperature and subsequently incubated overnight at 4 °C with primary antibodies. Blots were washed and then incubated for 1 h with a 1:5000 dilution of HRP -conjugated secondary antibodies in 5% bovine serum albumin in TBS -Tween-20 (0.1%) or anti-Mouse (Licor, IRDye® 680RD Goat anti -Mouse IgG, 1:10k dilution) or anti-Rabbit secondary antibody (Licor, IRDye® Goat anti -Rabbit IgG, 1:10k dilution) at room temperature. Bands were visualized using WesternBright ECL HRP substrate (Advansta, San Jose, CA) and a C -DiGit Western Blot Scanner (LI -COR Biotechnology, Lincoln, NE) or a Licor Odyssey CLx imager. Primary antibodies used in this study are as follows. AhR (Cat.No. 83200; Cell Signaling Technology, Leiden, The Netherlands). AIP (Cat.No. sc-59730; Santa Cruz Biotechnology, Dallas, TX). Cul4B (Cat.No. abx004735; Abbexa, Houston, TX). GAPDH (Cat.No. 2118; Cell Signaling Technology). Vinculin (Cat.No. 13901, Cell Signaling Technology). α - Tubulin (Abcam, ab7291, 1:10k dilution).
HaCaT-EV and HaCaT-shAhR cells were treated with either vehicle (DMSO) or 10 µM 12d for 0.5 h and 1 h. […]

Structure (SMILES)	cytotoxicity / pro-apoptotic activity at 100 µM (Jurkat cells)	cytotoxicity / pro-apoptotic activity at 100 µM (HEK293T cells)	solubility in the growing media [1]	pEC50 [2]	overlap between effective and toxic concentrations (HaCaT cells)	UVA radiation-induced caspase activity (phototoxicity) (HaCaT cells; 100 nM)	UVA radiation-induced caspase activity (phototoxicity) (HaCaT cells; 1 µM)	AhR receptor proteolysis (AhR)
CC(=O)Nc1ccccc1C(=O)c1c2[nH]c3ccccc3c2cc2[nH]c3ccccc3c12 [compound 10]	minimal pro-apoptotic activity	minimal pro-apoptotic activity	slight turbidity	6.59	minimal overlap	neither tapinarof nor our 6-ICZ compounds enhanced	did not show any signs of phototoxicity; also recorded: no phototoxicity	
Cc1[nH]c2ccccc2c1-c1c2[nH]c3ccc(F)cc3c2cc2[nH]c3ccc(F)cc3c12 [5k]				5.56				induced receptor proteolysis
Cn1c2ccccc2c2c(C3=C(O)CC(C)(C)CC3=O)c3c(cc21)c1ccccc1n3C [4d]	slight cytotoxic effects	minimal pro-apoptotic activity		5.88				
COc1ccc2[nH]cc(-c3c4[nH]c5ccccc5c4cc4[nH]c5ccccc5c34)c2c1 [5a]				6.22				induced receptor proteolysis
Cn1cc(-c2c3[nH]c4ccccc4c3cc3[nH]c4ccccc4c23)c2ccccc21 [5d]				6.42				induced receptor proteolysis
